Legend:
ENaC = target: T1, ENaC (Homo sapiens, UniProt P37088+P51168+P51170); assay: Ussing chamber Isc in F508del-homozygous CF HBEC cultures; type: cell-based
T1 construct: host or cells: primary normal human bronchial epithelial cells, ALI culture
T1 sequence (P37088 1-669): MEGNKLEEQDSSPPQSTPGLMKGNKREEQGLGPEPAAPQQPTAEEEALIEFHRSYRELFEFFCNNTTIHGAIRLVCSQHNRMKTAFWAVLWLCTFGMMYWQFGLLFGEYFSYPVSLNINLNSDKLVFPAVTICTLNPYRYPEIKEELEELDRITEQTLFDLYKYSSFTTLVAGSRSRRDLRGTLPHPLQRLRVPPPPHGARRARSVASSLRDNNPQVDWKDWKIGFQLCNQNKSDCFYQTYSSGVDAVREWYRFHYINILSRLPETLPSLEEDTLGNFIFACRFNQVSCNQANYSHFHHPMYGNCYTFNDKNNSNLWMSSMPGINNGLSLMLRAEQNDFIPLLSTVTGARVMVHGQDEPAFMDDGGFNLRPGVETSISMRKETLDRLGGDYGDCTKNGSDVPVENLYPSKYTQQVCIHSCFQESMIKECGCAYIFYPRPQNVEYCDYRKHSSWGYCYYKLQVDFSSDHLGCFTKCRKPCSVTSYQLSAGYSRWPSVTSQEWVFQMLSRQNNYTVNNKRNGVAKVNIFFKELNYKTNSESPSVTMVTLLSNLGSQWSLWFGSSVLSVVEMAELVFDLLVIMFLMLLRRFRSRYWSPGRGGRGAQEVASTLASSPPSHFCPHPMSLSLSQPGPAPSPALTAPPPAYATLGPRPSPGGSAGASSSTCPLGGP
T1 sequence (P51168 1-640): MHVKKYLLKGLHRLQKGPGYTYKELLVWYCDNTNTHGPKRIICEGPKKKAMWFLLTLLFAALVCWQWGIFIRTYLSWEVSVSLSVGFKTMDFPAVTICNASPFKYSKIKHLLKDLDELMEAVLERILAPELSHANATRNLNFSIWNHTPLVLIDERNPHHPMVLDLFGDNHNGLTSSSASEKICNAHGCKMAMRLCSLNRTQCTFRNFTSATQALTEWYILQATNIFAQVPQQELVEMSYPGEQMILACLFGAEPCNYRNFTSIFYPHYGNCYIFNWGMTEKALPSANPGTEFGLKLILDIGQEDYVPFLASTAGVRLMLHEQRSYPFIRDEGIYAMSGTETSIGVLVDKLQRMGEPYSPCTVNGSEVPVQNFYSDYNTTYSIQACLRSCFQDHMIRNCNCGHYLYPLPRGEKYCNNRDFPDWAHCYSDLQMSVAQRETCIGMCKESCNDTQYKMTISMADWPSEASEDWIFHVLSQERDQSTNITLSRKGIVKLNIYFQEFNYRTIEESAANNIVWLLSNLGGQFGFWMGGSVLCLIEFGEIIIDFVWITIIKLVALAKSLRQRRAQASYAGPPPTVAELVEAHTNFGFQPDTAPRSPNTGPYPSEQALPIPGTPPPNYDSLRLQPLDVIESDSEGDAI
T1 sequence (P51170 1-649): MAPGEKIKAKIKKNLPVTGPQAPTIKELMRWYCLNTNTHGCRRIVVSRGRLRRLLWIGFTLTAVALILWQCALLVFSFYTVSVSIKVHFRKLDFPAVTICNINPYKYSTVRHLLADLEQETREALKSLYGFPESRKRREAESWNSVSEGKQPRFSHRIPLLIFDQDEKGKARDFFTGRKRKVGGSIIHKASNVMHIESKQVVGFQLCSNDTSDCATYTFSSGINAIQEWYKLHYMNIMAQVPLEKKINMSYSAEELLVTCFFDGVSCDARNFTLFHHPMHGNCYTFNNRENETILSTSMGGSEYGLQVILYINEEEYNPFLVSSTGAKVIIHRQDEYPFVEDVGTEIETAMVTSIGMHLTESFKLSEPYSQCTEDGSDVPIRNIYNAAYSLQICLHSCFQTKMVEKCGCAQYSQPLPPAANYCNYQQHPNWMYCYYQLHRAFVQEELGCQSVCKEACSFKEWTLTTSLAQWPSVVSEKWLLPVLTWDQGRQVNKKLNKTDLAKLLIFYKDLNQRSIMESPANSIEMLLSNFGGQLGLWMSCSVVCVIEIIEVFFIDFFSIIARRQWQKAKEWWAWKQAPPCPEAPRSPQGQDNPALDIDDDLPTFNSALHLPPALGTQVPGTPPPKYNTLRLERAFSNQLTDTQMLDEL
Method: Using previously described techniques ([2], [37]), epithelial cells were harvested from excised lung tissue derived from CF donors homozygous for F508del CFTR, expanded, and grown until confluency was attained. […] To stimulate fresh mucus secretion and formation of an even ASL layer, the cells were washed 48–72 h before experimentation with PneumaCult ALI media (80 µL), added apically, and then aspirated following 30–45 min incubation at 37°C. The washing process was repeated with a 15-min incubation period and the mucus layer was allowed to reestablish, after which the cells were treated with 1 µL of AZD5634 (1 µM, apical), alone and in combination with lumacaftor and ivacaftor (luma/iva; 3 µM/10 µM, basolateral). PBS (1% DMSO, apical) served as a vehicle control. […] Only passage 1 and 2 monolayers were used for these studies.
CFTR-dependent ion transport electrophysiology was measured in HBEC cultures by Isc using modified P2300 Ussing chambers (Physiologic Instruments, San Diego, CA) as previously described ([37], [38]). […] All chambers were maintained at 37°C and agonist stimulation was initiated within 15 min of placement in the chambers.
Descriptive statistics were calculated and means compared using unpaired or paired t tests, or ANOVA, with post hoc analyses conducted for multiple comparisons where appropriate. For analyses of functional anatomy of en bloc trachea, a mixed linear model was used that corrected for within-animal correlation. All tests were two-sided and were computed using GraphPad Prism (GraphPad Software, Inc., La Jolla, CA). P-values <0.05 were considered significant. Statistics are reported as means ± SE, unless indicated otherwise.

[1] = tested on: amiloride-sensitive potential difference; parameters: method as in PMID 35227647; details: perfused to the nasal surface, people with CF; cited from earlier work

EC50 (ENaC; F508del-homozygous HBE ALI cultures, read-out: half maximal effective concentration (EC50), cumulative drug effect on Isc): 45.2 nM
incremental Isc change (ENaC; at 100 nM): −6.4 ± 1.6
cumulative ΔIsc (ENaC; at the maximum concentration (10,000 nM)): −25.3 ± 5.9
further reduction in Isc upon acute addition of benzamil (ENaC; benzamil 10 μM after maximal concentration of test drug): no further appreciable reductions in Isc
Substance: AZD5634
effect on amiloride-sensitive nasal potential difference [1]: acutely inhibited amiloride-sensitive potential difference
